Publication PMC9029323, “In Silico Identification of Novel Inhibitors Targeting the Homodimeric Interface of Superoxide Dismutase from the Dental Pathogen Streptococcus mutans” (Antioxidants, 2022)

What was measured:
SmSOD = target: T1, SmSOD (Streptococcus mutans serotype c, UniProt P09738); assay: SOD activity assay (inhibition of cytochrome c reduction, xanthine/xanthine oxidase method) with SmSOD; assay type: biochemical; settings: for remaining activity at 50 µM: 50 µM compound; for remaining activity at 50 µM / remaining activity at 100 µM / IC50: ALS-31 derivatives, Table 2; for remaining activity at 50 µM / remaining activity at 100 µM: read-out: Residual SOD Activity (%) in the Presence of [Compound]; for remaining activity at 100 µM: 100 µM compound; for IC50: SmSOD activity, read-out: IC50; for effect on SmSOD activity (in words): screening concentrations or inhibition profile up to 300 µM
T1 construct: His-tail; made in house; host or cells: Escherichia coli BL21(DE3), vector vSmSOD (pET-22b(+)-derived)
Source text: Purified recombinant forms of SmSOD and StSOD were obtained through a heterologous expression system constituted by the Escherichia coli BL21(DE3) strain transformed with appropriate expression vectors, vSmSOD [11] or vStSOD [12]. These pET-22b(+)- or pET-28b(+)-derived plasmids led to the production of recombinant forms of SmSOD or StSOD, respectively fused to a His-tail, useful for their one-step purification by affinity chromatography, as previously described [11, 12]. The improvement of Mn uptake by SmSOD was realised as previously described [11, 12, 13]. The resulting metal (Fe and Mn) content in the cambialistic enzyme was determined by graphite furnace atomic absorption spectrometry with a Shimadzu ACS-6100 auto sampler [46]. Fe-SOD from Escherichia coli (cat. SRP6107) and the Cu/Zn-SOD from bovine erythrocytes (cat. 574594) were purchased from Sigma–Aldrich. A recombinant form of the eukaryal Mn–SOD from rat mitochondria was prepared as previously described [19]. Protein concentration was determined by the Bradford method, using bovine serum albumin as standard [47]. […] One unit of SOD activity was defined as the amount of enzyme that caused 50% inhibition of cytochrome c reduction.

[1] = tested on: Streptococcus mutans ATCC-700610; assay: Broth micro-dilution antibacterial assay (planktonic growth); assay type: cell-based; settings: 24 h
Procedure: (§1) The bacterial strain used for antimicrobial assays was Streptococcus mutans ATCC-700610. The strain was stored in 15% (v/v) glycerol stocks at −80 °C. Before each experiment, cells were subcultured from the stocks into Trypticase Soy Agar (TSA, cat. PA-254051.06) with 5% Sheep Blood (Becton Dickinson, Sparks, NV, USA) plates at 37 °C in 5% CO2 atmosphere for 48 h.
The antibacterial activity of compounds ALS-31 or ALS-31-9 was assayed in S. mutans cultures by a standard broth micro-dilution method in 96-well polystyrene plates using Brain-Heart Infusion broth (BHI, cat. 255003, Becton Dickinson, Sparks, NV, USA). One hundred microliters of bacterial suspension adjusted to approximately 1.5 × 10^6 CFU/mL were incubated with 100 µL of serial dilutions of the compounds dissolved in final 1.0% (v/v) DMSO as a vehicle. The plates were incubated at 37 °C in 5% CO2 atmosphere for 24 h under shaking (300 rpm). The medium turbidity was measured by a spectrophotometer at 595 nm (Bio-Rad Laboratories Inc., Hercules, CA, USA). Compound-free wells in 1.0% (v/v) DMSO were used as controls (100% planktonic growth), and antibacterial activity was expressed as a percentage of residual growth. Chlorhexidine acetate (CHX, cat. 51094, Sigma-Aldrich, St. Louis, MO, USA) solution (1 mg/mL) was prepared and included as control for the assay of S. mutans’ susceptibility (MIC referred to [51]). Each compound was tested in triplicate; each experiment was performed twice.

[2] = tested on: Streptococcus mutans ATCC-700610; assay: Crystal violet staining biofilm biomass assay; assay type: cell-based; settings: Streptococcus mutans, ATCC700610, 24 h, read-out: inhibition of biofilm biomass formation
Procedure: as §1
The crystal violet (CV) staining method was used to measure biofilm biomass formed in flat-bottomed 96-well microplates in the presence of ALS-31 or ALS-31-9, as described by Stepanović et al., with some modifications. A bacterial suspension of approximately 1.5 × 10^6 CFU/mL in BHI supplemented with 1% (w/v) glucose was prepared, and 100-µL aliquots of this suspension were incubated with 100 µL of serial dilutions of each compound. The microplate was incubated at 37 °C for 24 h, after which the non-adherent cells were gently aspirated and the wells gently rinsed with PBS (Sigma–Aldrich). The adhered biofilm was dried at 60 °C for 30 min and subsequently stained with 0.1% (w/v) crystal violet solution for 30 min. After washing with PBS and solubilization with absolute ethanol to release the dye from the biofilm, the plate was read at 570 nm in a spectrophotometer. The absorbance recorded was related to the amount of biofilm produced. The reduction in the mass of the biofilm was expressed as a percentage by using the formula [(Ac-At)/Ac] × 100, where Ac is the OD570 for the control wells and At is the OD570 in the presence of the tested compound.

T1 sequence (P09738 2-203): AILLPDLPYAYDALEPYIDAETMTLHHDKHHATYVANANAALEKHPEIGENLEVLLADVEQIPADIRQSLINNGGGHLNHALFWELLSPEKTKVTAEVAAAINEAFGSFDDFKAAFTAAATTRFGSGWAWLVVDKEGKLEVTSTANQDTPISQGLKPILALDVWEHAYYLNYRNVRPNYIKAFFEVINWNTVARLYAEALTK

| Compound | remaining activity at 50 µM (SmSOD) [%] | remaining activity at 100 µM (SmSOD) [%] | IC50 (SmSOD) [µM] | effect on SmSOD activity (in words) (SmSOD) | further results |
| --- | --- | --- | --- | --- | --- |
| O=C(O)CCC(NC(=O)COc1ccc2c3c(c(=O)oc2c1)CCC3)C(=O)O (stereo not drawn) [ALS-31-2] | 89.8 | 113 | – | – | – |
| CSCCC(NC(=O)COc1ccc2c3c(c(=O)oc2c1)CCC3)C(=O)O (stereo not drawn) [ALS-31-1] | 104 | 97.2 | – | – | – |
| CC(NC(=O)COc1ccc2c3c(c(=O)oc2c1)CCCC3)C(=O)NCC(=O)NCC(=O)O (stereo not drawn) [ALS-31-5] | 93.4 | 99.6 | – | – | – |
| CSCCC(NC(=O)COc1cc(C)cc2oc(=O)c3c(c12)CCC3)C(=O)NCCC(=O)O (stereo not drawn) [ALS-31-4] | 92.6 | 96.8 | – | – | – |
| CCCC(NC(=O)COc1ccc2c3c(c(=O)oc2c1)CCCC3)C(=O)O (stereo not drawn) [ALS-31-11] | 83.7 | 125 | – | – | – |
| CSCCC(NC(=O)COc1ccc2c3c(c(=O)oc2c1)CCCC3)C(=O)O (stereo not drawn) [ALS-31-10] | 75 | 68.9 | 139 ± 8 | dose-dependent reduction | – |
| O=C(O)CCCNC(=O)COc1ccc2c3c(c(=O)oc2c1)CCCC3 [ALS-31-6] | 75.1 | 78 | 127 ± 12 | dose-dependent reduction | – |
| O=C(O)CNC(=O)CNC(=O)COc1ccc2c3c(c(=O)oc2c1)CCCC3 [ALS-31-12] | 75.6 | 125 | – | – | – |
| CCCC(NC(=O)COc1ccc2c3c(c(=O)oc2c1)CCCC3)C(=O)NCCCC(=O)O (stereo not drawn) [ALS-31-9] | 65.3 | 50.3 | 64 ± 15 | dose-dependent reduction | improved inhibition power on SmSOD compared to lead ALS-31 (SmSOD; ratio of IC50 values): 2.5 fold; percentage of planktonic growth of S. mutans ([1]; 54 µM): 79.0 ± 4.6%; percentage of planktonic growth of S. mutans ([1]; 108 µM): 39.5 ± 2.1%; planktonic growth of S. mutans compared with 108 µM ([1]; 216 µM): no further reduction; concentration up to which no antimicrobial activity is displayed in S. mutans suspensions [1]: ≤ 25 µM; inhibition at 13.5 µM ([2]; 13.5 µM): 29.4%; inhibition at 27.3 µM ([2]; 27.3 µM): 62.1% |
| CSCCC(NC(=O)CCNC(=O)COc1cc2oc(=O)c3c(c2cc1C)CCCC3)C(=O)O (stereo not drawn) [ALS-31-8] | 69.2 | 76.9 | 292 ± 30 | dose-dependent reduction | – |
| CSCCC(NC(=O)CCNC(=O)COc1ccc2c3c(c(=O)oc2c1)CCC3)C(=O)O (stereo not drawn) [ALS-31-3] | 78.8 | 104 | – | – | – |
| O=C(O)CCNC(=O)COc1ccc2c3c(c(=O)oc2c1)CCCC3 [ALS-31-7] | 95.4 | 125 | – | – | – |
